Test systems include COLO 205; EKVX; HCC 2998; HOP-62; KM12; NCI-H23; NCI-H460; NCI-H522; OVCAR-4; RPMI-8226; SF-268; SK-MEL-2; SK-MEL-5; SN12C; SW-620; TK-10; UACC-62.
Assay in all cases: inhibition of tumour cell growth, NCI panel, 48 h

Results on 8 compounds are retold here after ChEMBL document CHEMBL1201862, “PubChem BioAssay data set” (2004).

Each structure is given as a SMILES string.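 Each compound was tested at five concentrations against cells in 96-well plates for 48 hours. Here, GI50 denotes the concentration required for 50% inhibition of growth.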 Activity calls are given as the source filed them. Cut-off read from the data, not from the text of the source: active = GI50 up to about 1.1 µM and inactive = higher.

For `N#CCCN(CCC#N)c1ccc(/C=C(/NC(=O)c2cc([N+](=O)[O-])ccc2Cl)C(=O)NN)cc1`, the GI50 in the assay on COLO 205, in the assay with EKVX, with HCC 2998, in the assay with HOP-62, in the assay with KM12 and in the assay with NCI-H23 was > 100 µM (inactive) throughout. Also, the GI50 in the assay with NCI-H460 was > 100 µM (inactive); in the assay on NCI-H522, > 100 µM (inactive); in the assay with OVCAR-4, > 100 µM (inactive); in the assay on RPMI-8226 it was 29.6 µM (inactive); in the assay with SF-268, > 100 µM (inactive); with SK-MEL-2 it was > 100 µM (inactive). For the same compound, the GI50 in the assay on SK-MEL-5, in the assay with SN12C, with SW-620, in the assay with TK-10 and in the assay on UACC-62 was > 100 µM (inactive) in each case.
For the compound `Nc1ccc2ncc(Nc3ccc(F)cc3)nc2c1`, the GI50 in the assay on COLO 205 was > 100 µM (inactive); with EKVX, > 100 µM (inactive); in the assay with HCC 2998, > 100 µM (inactive); in the assay on HOP-62 it was > 100 µM (inactive); in the assay on KM12 it was 46.3 µM (inactive); with NCI-H23, > 100 µM (inactive). Also, the GI50 with NCI-H460 is > 100 µM (inactive); in the assay with NCI-H522, > 100 µM (inactive); with OVCAR-4, > 100 µM (inactive); in the assay with RPMI-8226, 87.3 µM (inactive); in the assay with SF-268 it was > 100 µM (inactive); with SK-MEL-2 it was > 10 µM (inactive). For the same compound, the GI50 is 34.9 µM (inactive) in the assay on SK-MEL-5, > 100 µM (inactive) in the assay with SN12C, > 100 µM (inactive) in the assay with SW-620 and > 100 µM (inactive) with TK-10.
As to `Clc1ccc(-c2c(C3=NCCN3)nnn2-c2ccccc2)cc1`, the GI50 was 40.1 µM (inactive) with COLO 205; > 100 µM (inactive) in the assay on EKVX; > 100 µM (inactive) in the assay with HCC 2998; > 100 µM (inactive) in the assay on HOP-62; > 100 µM (inactive) in the assay on KM12; > 100 µM (inactive) in the assay on NCI-H23. The GI50 in the assay on NCI-H460 was > 100 µM (inactive); with NCI-H522 it was > 100 µM (inactive); in the assay with OVCAR-4, > 100 µM (inactive); with RPMI-8226 it was > 100 µM (inactive); with SF-268 it was > 100 µM (inactive); with SK-MEL-2 it was 51.2 µM (inactive). Moreover, the GI50 in the assay on SK-MEL-5 is 97.1 µM (inactive); in the assay with SN12C it was > 100 µM (inactive); in the assay with SW-620, > 100 µM (inactive); with TK-10 it was 51.8 µM (inactive); in the assay with UACC-62, > 100 µM (inactive).
Consider `Cc1ccc(S(=O)(=O)C2=c3nc4ccccc4cc3=C3C(=O)c4ccccc4C(=O)C32)cc1` (stereo not drawn), for which the GI50 with COLO 205, with EKVX, in the assay on HCC 2998, in the assay on HOP-62, with KM12 and with NCI-H23 was > 100 µM (inactive) in each case. The GI50 in the assay on NCI-H460, in the assay with NCI-H522, with OVCAR-4, in the assay with RPMI-8226, in the assay on SF-268 and with SK-MEL-2 was > 100 µM (inactive) throughout. In addition, the GI50 with SK-MEL-5 is 63.2 µM (inactive); in the assay on SN12C it was > 100 µM (inactive); with SW-620, > 100 µM (inactive); with TK-10, > 100 µM (inactive); with UACC-62, > 100 µM (inactive).
Consider `CC(=O)OCC1OC(n2c(=S)n(-c3ccccc3)c(=O)c3cc(Br)ccc32)C(OC(C)=O)C1OC(C)=O` (stereo not drawn), for which the GI50 with COLO 205, in the assay with EKVX, with HCC 2998, with HOP-62, in the assay on KM12 and with NCI-H23 was > 100 µM (inactive) each time. For the same compound, the GI50 in the assay with NCI-H460 is > 100 µM (inactive); in the assay with NCI-H522, > 100 µM (inactive); in the assay with OVCAR-4 it was > 100 µM (inactive); in the assay with RPMI-8226, 51.3 µM (inactive); in the assay with SF-268, > 100 µM (inactive); in the assay on SK-MEL-2, > 100 µM (inactive). For the same compound, the GI50 in the assay on SK-MEL-5, in the assay with SN12C, with SW-620 and in the assay on UACC-62 was > 100 µM (inactive) each time.
Turning to `C=CCC1C(=O)C(C(=O)OC)N2CCc3c([nH]c4ccccc34)C12` (stereo not drawn), the GI50 in the assay with COLO 205, in the assay with EKVX, in the assay on HCC 2998, in the assay with HOP-62, in the assay on KM12 and with NCI-H23 was > 100 µM (inactive) in each case. Also, the GI50 in the assay on NCI-H522 was 80 µM (inactive); in the assay on OVCAR-4 it was > 100 µM (inactive); with RPMI-8226 it was 59.2 µM (inactive); with SF-268, > 100 µM (inactive); with SK-MEL-2, > 100 µM (inactive); in the assay with SK-MEL-5, > 100 µM (inactive). For the same compound, the GI50 in the assay on SN12C, with SW-620, in the assay with TK-10 and in the assay with UACC-62 was > 100 µM (inactive) each time.
For the compound `CC(=O)Oc1c(-c2ccccc2)[nH]c2cc([N+](=O)[O-])c(/C(Cl)=C/c3ccccc3)cc12`, the GI50 was 4 µM (inactive) in the assay with COLO 205; 8.53 µM (inactive) in the assay with EKVX; 4.6 µM (inactive) in the assay on HCC 2998; 25.9 µM (inactive) in the assay on HOP-62; 3.97 µM (inactive) in the assay with KM12; 2.47 µM (inactive) in the assay on NCI-H23. In addition, the GI50 is 4.62 µM (inactive) in the assay on NCI-H460; 4.86 µM (inactive) in the assay with NCI-H522; 5.42 µM (inactive) with OVCAR-4; 3.08 µM (inactive) with RPMI-8226; 7.96 µM (inactive) with SF-268; 9.57 µM (inactive) in the assay on SK-MEL-2. The GI50 was 1.89 µM (inactive) in the assay with SK-MEL-5; 4.86 µM (inactive) in the assay on SN12C; 8.89 µM (inactive) in the assay on SW-620; 19.8 µM (inactive) in the assay on TK-10; 4.24 µM (inactive) in the assay with UACC-62.
In the case of `Nc1nc(N)c(CCCCc2ccccc2)c(/C=C/c2ccc([N+](=O)[O-])cc2)n1`, the GI50 is 3.39 µM (inactive) in the assay with COLO 205; 4.44 µM (inactive) with EKVX; 2.65 µM (inactive) with HCC 2998; 2.77 µM (inactive) in the assay on HOP-62; 3.03 µM (inactive) in the assay with KM12; 3.86 µM (inactive) in the assay with NCI-H23. Moreover, the GI50 in the assay with NCI-H460 is 0.873 µM (active); in the assay on NCI-H522 it was 2.24 µM (inactive); in the assay with OVCAR-4 it was 3.94 µM (inactive); in the assay on RPMI-8226 it was 3.31 µM (inactive); in the assay on SF-268 it was 3.7 µM (inactive); in the assay on SK-MEL-2, 2.79 µM (inactive). The GI50 in the assay with SK-MEL-5 is 2.18 µM (inactive); in the assay on SN12C it was 2.74 µM (inactive); in the assay with SW-620, 1.24 µM (inactive); with TK-10, 1.8 µM (inactive); in the assay on UACC-62, 2.07 µM (inactive).
